According to patent publication US20250041574A1 (TARIS Biomedical LLC, priority 2022, published 2025):
Read-outs that look alike come from different tables or passages of the source.

How the values were obtained:
[1] = dynamic vapor sorption
[2] = not given; remark: listed apart in the source
[3] = Stability in minipig urine; assay type: in vitro ADME; conditions: freshly collected minipig urine, 37° C., 6 hours
Protocol: (§1) At the end of 6-hours post-dialysis incubation, drug was analyzed, and the recovery was calculated against the spiked concentrations.

[4] = urine
From the text: On Day −7 a catheter was surgically placed in the bladder of each animal. The distal end of the catheter was anchored to a subcutaneous site and attached to a vascular access port (VAP). The port was secured, and the animals were allowed to recover. Each animal was subsequently fitted with a portable infusion pump that was attached to the bladder catheter via the VAP. […] All excreted urine was collected in 24-hour intervals through Day 6 or 8. Blood samples were collected daily on study Days 1 to 8. Bladder tissue samples were collected from each animal at necropsy.

[5] = Stability in rat urine; assay type: in vitro ADME; conditions: freshly collected rat urine, 37° C., 6 hours
Protocol: as §1

[6] = In vitro protein binding in human urine; assay type: in vitro ADME
Protocol: (§2) Albuminuria/proteinuria had minimal effect on % free form in urine.
as §1

[7] = system: RT-112 orthotopic bladder tumor; assay: Continuous bladder perfusion in athymic rats with orthotopic RT-112 bladder tumors
[8] = In vitro protein binding in rat urine; assay type: in vitro ADME
Protocol: as §2, §1

[9] = rat, in vivo
From the text: Rat bladders (5 groups of rats, n=3/group) were surgically catheterized under anesthesia and the catheter was externalized, tunneled subcutaneously, and connected to a vascular access harness (VAH) in the neck. Rats were transferred to individual metabolic cages with free access to food and water during the 1-week post-surgery recovery period. […] Plasma and bladder samples were collected at all time points.

[10] = In vitro protein binding in minipig urine; assay type: in vitro ADME
Protocol: as §2, §1

[11] = system: UM-UC-1 orthotopic bladder tumors; assay: Continuous bladder perfusion in athymic rats with orthotopic UM-UC-1 bladder tumors
Protocol: Perfusion studies: The bladders of the study animals were cannulated on Day 1 and the animals were allowed to recover for 3 days. On Day 5, UM-UC-1 cells (2×10^6 cells) were injected into the lateral wall of each bladder. […] Based on the in vitro results, target urine concentrations of 0.5, 1.0, and 5.0 μg/mL were used in the perfusion experiments. Body weight, daily urine production, and daily water consumption were recorded. At necropsy, a plasma sample, bladder photographs, and bladder weight measurements were recorded.
The percent reduction in relative tumor weight between the control group and the drug perfusion groups was determined as an initial measure of efficacy. Bladder tissue and tumor samples were also submitted for analysis of FGFR signaling activity by determining the phosphorylated fibroblast growth factor receptor substrate (FRS)2a levels and the pERK to ERK ratio.

[12] = Stability in human urine; assay type: in vitro ADME; conditions: freshly collected human urine, 37° C., 6 hours
Protocol: as §1

**Q.** For COc1cc(OC)cc(N(CCNC(C)C)c2ccc3ncc(-c4cnn(C)c4)nc3c2)c1.C[C@H](O)C(=O)O [Erdafitinib L-lactate salt], which solubility (as function of pH in water and simulated urine at 37° C.) is on record?
**A.** very high solubility over a broad pH range

**Q.** What about the DVS [1] of the same compound?
**A.** Non-hygroscopic

**Q.** What about the “In Vitro Permeation” value ([2]; EVA (CoTran 9712)) of the same compound?
**A.** ◯

**Q.** And the “In Vitro Permeation” value ([2]; TPU (EG-80A))?
**A.** Δ

**Q.** And the “In Vitro Permeation” value ([2]; TPU (HP-60D-35))?
**A.** ◯

**Q.** And the “In Vitro Permeation” value ([2]; TPU (HP-93A-100))?
**A.** ◯

**Q.** With COc1cc(OC)cc(N(CCNC(C)C)c2ccc3ncc(-c4cnn(C)c4)nc3c2)c1 [erdafitinib, N-(3,5-dimethoxyphenyl)-N′-(1-methylethyl)-N-[3-(1-methyl-1H-pyrazol-4-yl)quinoxalin-6-yl]ethane-1,2-diamine] as the compound, how does the stability in urine [3] read?
**A.** sufficiently stable

**Q.** And the solubility (normal urine pH range of 5.5 to 7)?
**A.** significant pH-dependent solubility

**Q.** What about the “Daily erdafitinib recoveries, of the average daily amount administered” value [4] of the same compound?
**A.** 15.7%

**Q.** What about the stability in urine [5] of the same compound?
**A.** sufficiently stable

**Q.** What about the “Percent erdafitinib free in urine” value [6] of the same compound?
**A.** 95%

**Q.** What about the “bladder weight vs vehicle control” value ([7]; 1.0 μg/mL perfusate concentration, p<0.05) of the same compound?
**A.** significant bladder weight reduction

**Q.** And the “bladder weight decrease vs vehicle control” value ([7]; 0.25 and 0.5 μg/mL dose groups)?
**A.** not statistically significant

**Q.** And the “percentage change in body weight vs vehicle control” value ([7]; 0.5, 1.0 and 5.0 μg/mL treatment groups (so in the source), except Group 4 on Day 11 (p<0.05))?
**A.** Statistically non-significant difference

**Q.** What about the “body weight loss, maximum mean values” ([7]; erdafitinib-treated group, Day 11) of the same compound?
**A.** up to −3%

**Q.** What about the DVS [1] of the same compound?
**A.** Non-hygroscopic

**Q.** What about the “Percent erdafitinib free in urine” value [8] of the same compound?
**A.** 84%

**Q.** And the AUC0-120h ([9]; female, Sprague-Dawley, 0.72 mg)?
**A.** 127,000 ng · h/mL

**Q.** What about the C96h [9] of the same compound?
**A.** BQL

**Q.** And the C120h [9]?
**A.** BQL

**Q.** And the “Percent erdafitinib free in urine” value [10]?
**A.** 97%

**Q.** And the “bladder weight vs vehicle control” value ([11]; 0.5 (p<0.01), 1.0 and 5 μg/mL (p<0.001) nominal urine concentrations, 5 days perfusion)?
**A.** significant dose-related decrease

**Q.** And the “percentage change in body weight vs vehicle control” value ([11]; 0.5, 1.0 and 5.0 μg/mL treatment groups)?
**A.** Statistically non-significant difference

**Q.** What about the cage side observations ([11]; 5 days continuous perfusion, 0.5, 1.0, 5.0 μg/mL, any treatment group) of the same compound?
**A.** no visible signs of abnormal behavior or clinical symptoms

**Q.** And the stability in urine [12]?
**A.** sufficiently stable

**Q.** What about the “In Vitro Permeation” value ([2]; EVA (CoTran 9712)) of the same compound?
**A.** Δ

**Q.** And the “In Vitro Permeation” value ([2]; TPU (EG-80A))?
**A.** Δ

**Q.** What about the “In Vitro Permeation” value ([2]; TPU (HP-60D-35)) of the same compound?
**A.** ◯

**Q.** What about the “In Vitro Permeation” value ([2]; TPU (HP-93A-100)) of the same compound?
**A.** ◯
